The text below walks through data of patent publication US5413990A, “N-terminus modified analogs of LHRH” (Tap Pharmaceuticals Inc., priority 1993, dated 1995).

Square brackets hold non-standard residues; d marks the D form. Peptide text beside a SMILES is read from it. * marks the point of attachment. dPhe(4-Cl) = N[C@H](Cc1ccc(Cl)cc1)C(=O)O; d2Nal = N[C@H](Cc1ccc2ccccc2c1)C(=O)O; Cyclopentanecarbonyl = O=C(C1CCCC1)*; Lys(iPr) = CC(C)NCCCC[C@H](N)C(=O)O; NMeY = CN[C@@H](Cc1ccc(O)cc1)C(=O)O; Cyclohexylacetyl = O=C(CC1CCCCC1)*; Cyclopropanecarbonyl = O=C(C1CC1)*; Hydrocinnamoyl = O=C(CCc1ccccc1)*; d3Pal = N[C@H](Cc1cccnc1)C(=O)O; Nicotinoyl = O=C(c1cccnc1)*; Methoxyacetyl = COCC(=O)*; Isobutyryl = CC(C)C(=O)*; PhAc = O=C(Cc1ccccc1)*; Propionyl = CCC(=O)*; Butyryl = CCCC(=O)*; Bz = O=C(c1ccccc1)*; X4 = N#CCC(=O)*; For = O=C*

The experiment concerns the target T1, LHRH (Rattus norvegicus, UniProt P30969).
T1 construct: evaluated in an in vitro test for LHRH antagonist potency (pA2); endogenous in cells; host or cells: pituitary cells (rat, from my own knowledge of the cited method)
T1 sequence (P30969 1-327): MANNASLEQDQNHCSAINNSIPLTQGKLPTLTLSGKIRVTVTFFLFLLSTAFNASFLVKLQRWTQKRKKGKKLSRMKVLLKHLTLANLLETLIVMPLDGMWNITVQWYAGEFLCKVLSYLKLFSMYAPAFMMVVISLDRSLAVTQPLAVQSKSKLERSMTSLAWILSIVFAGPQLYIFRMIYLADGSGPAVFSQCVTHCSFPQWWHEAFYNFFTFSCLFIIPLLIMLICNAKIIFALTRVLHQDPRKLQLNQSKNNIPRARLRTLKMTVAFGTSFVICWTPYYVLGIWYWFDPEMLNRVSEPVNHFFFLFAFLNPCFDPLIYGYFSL
The experiment is described as follows: in vitro test for LHRH antagonist potency (pA2). The format is cell-based. The following applies: negative logarithm of the antagonist concentration required to shift the response curve produced by the agonist leuprolide to two-fold higher concentration. On the procedure:
Representative compounds of the present invention were evaluated in an in vitro test for LHRH antagonist potency (pA2). The test employed the method detailed in F. Haviv, et al. J. Med. Chem., 32:2340-2344 (1989). The values of pA2 are the negative logarithms of the concentration of the particular antagonist test compound required to shift the response curve produced by the agonist leuprolide to two-fold higher concentration. (Leuprolide is the LHRH agonist having the structure 5-oxo-Pro^1 -His^2 -Trp^3 -Ser^4 -Tyr^5 -D-Leu^6 -Leu^7 -Arg^8 -Pro^9 -NHEt and is disclosed and claimed in U.S. Pat. No. 4,005,063.) Typically pA2 values of 9.5 or greater are indicative of good LHRH antagonist potency, with values of 10.0 or greater being preferred.
As for `CC(C)C[C@H](NC(=O)[C@@H](CCCCNC(=O)c1cccnc1)NC(=O)[C@H](Cc1ccc(O)cc1)N(C)C(=O)[C@H](CO)NC(=O)[C@@H](Cc1cccnc1)NC(=O)[C@@H](Cc1ccc(Cl)cc1)NC(=O)[C@@H](Cc1ccc2ccccc2c1)NC=O)C(=O)N[C@@H](CCCCNC(C)C)C(=O)N1CCC[C@H]1C(=O)N[C@H](C)C(N)=O` [Example 1, N-Formyl-D2Nal-D4ClPhe-D3Pal-Ser-NMeTyr-DLys(Nicotinyl)-Leu-Lys(N-epsilon-lsopropyl)-Pro-DAlaNH2] (For-[d2Nal][dPhe(4-Cl)][d3Pal]S[NMeY][dK](Nicotinoyl)L[Lys(iPr)]P[dA]-NH2), the Kb is 1.58 pM. In the case of `CCC(=O)N[C@H](Cc1ccc2ccccc2c1)C(=O)N[C@H](Cc1ccc(Cl)cc1)C(=O)N[C@H](Cc1cccnc1)C(=O)N[C@@H](CO)C(=O)N(C)[C@@H](Cc1ccc(O)cc1)C(=O)N[C@H](CCCCNC(=O)c1cccnc1)C(=O)N[C@@H](CC(C)C)C(=O)N[C@@H](CCCCNC(C)C)C(=O)N1CCC[C@H]1C(=O)N[C@H](C)C(N)=O` [Example 2a, N-Propionyl-D2Nal-D4ClPhe-D3Pal-Ser-NMeTyr-DLys(N-epsilon-Nicotinyl)-Leu-Lys(N-epsilon-Isopropyl)-Pro-DAlaNH 2] (Propionyl-[d2Nal][dPhe(4-Cl)][d3Pal]S[NMeY][dK](Nicotinoyl)L[Lys(iPr)]P[dA]-NH2) it was 5.01 pM; in that of `CCCC(=O)N[C@H](Cc1ccc2ccccc2c1)C(=O)N[C@H](Cc1ccc(Cl)cc1)C(=O)N[C@H](Cc1cccnc1)C(=O)N[C@@H](CO)C(=O)N(C)[C@@H](Cc1ccc(O)cc1)C(=O)N[C@H](CCCCNC(=O)c1cccnc1)C(=O)N[C@@H](CC(C)C)C(=O)N[C@@H](CCCCNC(C)C)C(=O)N1CCC[C@H]1C(=O)N[C@H](C)C(N)=O` [Example 2b, N-Butyryl-D2Nal-D4ClPhe-D3Pal-Ser-NMeTyr-DLys(N-epsilon-Nicotinyl)-Leu-Lys(N-epsilon-Isopropyl)-Pro-DAlaNH 2] (Butyryl-[d2Nal][dPhe(4-Cl)][d3Pal]S[NMeY][dK](Nicotinoyl)L[Lys(iPr)]P[dA]-NH2), 8.91 pM; in that of `CC(C)C[C@H](NC(=O)[C@@H](CCCCNC(=O)c1cccnc1)NC(=O)[C@H](Cc1ccc(O)cc1)N(C)C(=O)[C@H](CO)NC(=O)[C@@H](Cc1cccnc1)NC(=O)[C@@H](Cc1ccc(Cl)cc1)NC(=O)[C@@H](Cc1ccc2ccccc2c1)NC(=O)C(C)C)C(=O)N[C@@H](CCCCNC(C)C)C(=O)N1CCC[C@H]1C(=O)N[C@H](C)C(N)=O` [Example 2c, N-Isobutyryl-D2Nal-D4ClPhe-D3Pal- Ser-NMeTyr-DLys(N-epsilon-Nicotinyl)-Leu-Lys(N-epsilon-Isopropyl)-Pro-DAlaNH2] (Isobutyryl-[d2Nal][dPhe(4-Cl)][d3Pal]S[NMeY][dK](Nicotinoyl)L[Lys(iPr)]P[dA]-NH2), 17.8 pM. In the case of `COCC(=O)N[C@H](Cc1ccc2ccccc2c1)C(=O)N[C@H](Cc1ccc(Cl)cc1)C(=O)N[C@H](Cc1cccnc1)C(=O)N[C@@H](CO)C(=O)N(C)[C@@H](Cc1ccc(O)cc1)C(=O)N[C@H](CCCCNC(=O)c1cccnc1)C(=O)N[C@@H](CC(C)C)C(=O)N[C@@H](CCCCNC(C)C)C(=O)N1CCC[C@H]1C(=O)N[C@H](C)C(N)=O` [Example 2d, N-Methoxyacetyl-D2Nal-D4ClPhe-D3Pal-Ser-NMeTyr-DLys(N-epsilon-Nicotinyl)-Leu-Lys(N-epsilon-Isopropyl)-Pro-DAlaNH 2] (Methoxyacetyl-[d2Nal][dPhe(4-Cl)][d3Pal]S[NMeY][dK](Nicotinoyl)L[Lys(iPr)]P[dA]-NH2) it was 7.24 pM. In the case of `CC(C)C[C@H](NC(=O)[C@@H](CCCCNC(=O)c1cccnc1)NC(=O)[C@H](Cc1ccc(O)cc1)N(C)C(=O)[C@H](CO)NC(=O)[C@@H](Cc1cccnc1)NC(=O)[C@@H](Cc1ccc(Cl)cc1)NC(=O)[C@@H](Cc1ccc2ccccc2c1)NC(=O)CC#N)C(=O)N[C@@H](CCCCNC(C)C)C(=O)N1CCC[C@H]1C(=O)N[C@H](C)C(N)=O` [Example 2e, N-Cyanoacetyl-D2Nal-D4ClPhe-D3Pal-Ser-NMeTyr-DLys(N-epsilon-Nicotinyl)-Leu- Lys(N-epsilon-Isopropyl)-Pro-DAlaNH2] (X4-[d2Nal][dPhe(4-Cl)][d3Pal]S[NMeY][dK](Nicotinoyl)L[Lys(iPr)]P[dA]-NH2) it was 3.16 pM. As for `CC(C)C[C@H](NC(=O)[C@@H](CCCCNC(=O)c1cccnc1)NC(=O)[C@H](Cc1ccc(O)cc1)N(C)C(=O)[C@H](CO)NC(=O)[C@@H](Cc1cccnc1)NC(=O)[C@@H](Cc1ccc(Cl)cc1)NC(=O)[C@@H](Cc1ccc2ccccc2c1)NC(=O)C1CC1)C(=O)N[C@@H](CCCCNC(C)C)C(=O)N1CCC[C@H]1C(=O)N[C@H](C)C(N)=O` [Example 2f, N-Cyclopropylcarbonyl-D2Nal-D4ClPhe- D3Pal-Ser-NMeTyr-DLys(N-epsilon-Nicotinyl)-Leu-Lys(N-epsilon-Isopropyl)-Pro-DAlaNH 2] (Cyclopropanecarbonyl-[d2Nal][dPhe(4-Cl)][d3Pal]S[NMeY][dK](Nicotinoyl)L[Lys(iPr)]P[dA]-NH2), the Kb is 3.55 pM. In the case of `CC(C)C[C@H](NC(=O)[C@@H](CCCCNC(=O)c1cccnc1)NC(=O)[C@H](Cc1ccc(O)cc1)N(C)C(=O)[C@H](CO)NC(=O)[C@@H](Cc1cccnc1)NC(=O)[C@@H](Cc1ccc(Cl)cc1)NC(=O)[C@@H](Cc1ccc2ccccc2c1)NC(=O)C1CCCC1)C(=O)N[C@@H](CCCCNC(C)C)C(=O)N1CCC[C@H]1C(=O)N[C@H](C)C(N)=O` [Example 2g, N-Cyclopentylcarbonyl-D2Nal-D4ClPhe-D3Pal-Ser-NMeTyr-DLys(N-epsilon-Nicotinyl)-Leu-Lys(N-epsilon-lsopropyl)-Pro-DAlaNH 2] (Cyclopentanecarbonyl-[d2Nal][dPhe(4-Cl)][d3Pal]S[NMeY][dK](Nicotinoyl)L[Lys(iPr)]P[dA]-NH2) it was 70.8 pM.

In the case of `CC(C)C[C@H](NC(=O)[C@@H](CCCCNC(=O)c1cccnc1)NC(=O)[C@H](Cc1ccc(O)cc1)N(C)C(=O)[C@H](CO)NC(=O)[C@@H](Cc1cccnc1)NC(=O)[C@@H](Cc1ccc(Cl)cc1)NC(=O)[C@@H](Cc1ccc2ccccc2c1)NC(=O)CC1CCCCC1)C(=O)N[C@@H](CCCCNC(C)C)C(=O)N1CCC[C@H]1C(=O)N[C@H](C)C(N)=O` [Example 2i, N-Cyclohexylacetyl-D2Nal-D4ClPhe-D3Pal-Ser-NMeTyr-DLys(N-epsilon-Nicotinyl)-Leu-Lys(N-epsilon-Isopropyl)-Pro-DAlaNH 2] (Cyclohexylacetyl-[d2Nal][dPhe(4-Cl)][d3Pal]S[NMeY][dK](Nicotinoyl)L[Lys(iPr)]P[dA]-NH2), the Kb is 1580 pM. In the case of `CC(C)C[C@H](NC(=O)[C@@H](CCCCNC(=O)c1cccnc1)NC(=O)[C@H](Cc1ccc(O)cc1)N(C)C(=O)[C@H](CO)NC(=O)[C@@H](Cc1cccnc1)NC(=O)[C@@H](Cc1ccc(Cl)cc1)NC(=O)[C@@H](Cc1ccc2ccccc2c1)NC(=O)c1ccccc1)C(=O)N[C@@H](CCCCNC(C)C)C(=O)N1CCC[C@H]1C(=O)N[C@H](C)C(N)=O` [Example 2j, N-Benzoyl-D2Nal-D4ClPhe-D3Pal-Ser-NMeTyr-DLys(N-epsilon-Nicotinyl)-Leu-Lys(N-epsilon-Isopropyl)-Pro-DAlaNH2] (Bz-[d2Nal][dPhe(4-Cl)][d3Pal]S[NMeY][dK](Nicotinoyl)L[Lys(iPr)]P[dA]-NH2) it was 50.1 pM; in that of `CC(C)C[C@H](NC(=O)[C@@H](CCCCNC(=O)c1cccnc1)NC(=O)[C@H](Cc1ccc(O)cc1)N(C)C(=O)[C@H](CO)NC(=O)[C@@H](Cc1cccnc1)NC(=O)[C@@H](Cc1ccc(Cl)cc1)NC(=O)[C@@H](Cc1ccc2ccccc2c1)NC(=O)Cc1ccccc1)C(=O)N[C@@H](CCCCNC(C)C)C(=O)N1CCC[C@H]1C(=O)N[C@H](C)C(N)=O` [Example 2k, N-Phenylacetyl-D2Nal-D4ClPhe-D3Pal-Ser-NMeTyr-DLys(N-epsilon-Nicotinyl)-Leu-Lys(N-epsilon-Isopropyl)-Pro-DAlaNH2] (PhAc-[d2Nal][dPhe(4-Cl)][d3Pal]S[NMeY][dK](Nicotinoyl)L[Lys(iPr)]P[dA]-NH2), 14.1 pM.

Consider `CC(C)C[C@H](NC(=O)[C@@H](CCCCNC(=O)c1cccnc1)NC(=O)[C@H](Cc1ccc(O)cc1)N(C)C(=O)[C@H](CO)NC(=O)[C@@H](Cc1cccnc1)NC(=O)[C@@H](Cc1ccc(Cl)cc1)NC(=O)[C@@H](Cc1ccc2ccccc2c1)NC(=O)CCc1ccccc1)C(=O)N[C@@H](CCCCNC(C)C)C(=O)N1CCC[C@H]1C(=O)N[C@H](C)C(N)=O` [Example 2l, N-3-Phenylpropionyl-D2Nal-D4ClPhe-D3Pal-Ser-NMeTyr-DLys(N-epsilon-Nicotinyl)-Leu-Lys(N-epsilon-Isopropyl)-Pro-DAlaNH 2] (Hydrocinnamoyl-[d2Nal][dPhe(4-Cl)][d3Pal]S[NMeY][dK](Nicotinoyl)L[Lys(iPr)]P[dA]-NH2), for which the Kb was 12.6 pM.
